Each structure is given as a SMILES string. Where a SMILES comes first, the peptide text is derived from it. The star is where a group is joined. Cbz = O=C(OCc1ccccc1)*; CH2F = FC*

Test [1] deals with human neuroblastoma SK-N-MC cells. Put plainly: Inhibition of ROS production induced by xanthine/xanthine oxidase (H2DCFDA probe, LDH-normalized). The following applies: XXO 10 μM-100 mU/ml, AA 100 μM, positive control. It counts as cell-based. The procedure:
The assay was performed on human neuroblastoma SK-N-MC cells in culture from the American Type Culture Collection (ATCC) (HTB-10), in all cases strict rules of sterility were followed and the manipulation was performed in class II biological safety cabinets following European standard EN 12469. The cells were maintained in Minimum Essential Medium Eagle (MEM) culture medium supplemented with 1 mM sodium pyruvate, 2 mM L-glutamine, 0.1 mM non-essential amino acids, 0.05 mg/ml gentamicin and 10% fetal bovine serum.
The inhibition by the NST0003 compound [(1S,3R,7S,8S,8aR)-1,2,3,7,8,8a-hexahydro-3,7-dimethyl-8-[2-[(2R,4R)-tetrahydro-4-hydroxy-6-oxo-2H-pyran-2-yl]ethyl-1-naphthalenyl propanoate] on the production of reactive oxygen species (ROS) in the SK-N-MC cells, was analyzed. […]
The cells were incubated (at 37° C. and 5% CO2) with these treatments for 3 h, after which time they were washed with HKRB buffer (20 mM HEPES, 103 mM NaCl, 4.77 mM KCl, 0.5 mM CaCl2, 1.2 mM MgCl2, 1.2 mM KH2PO4, 25 mM […], 15 mM glucose; at pH 7.3) after which the 2′,7′-dichlorodihydrofluorescein diacetate (H2DCFDA) probe was added at 30 μM diluted in HKRB buffer and it was incubated for another 2 hours in the same conditions. The reading of the plate was taken in a fluorometer at the conditions of 485 nm for excitation and 538 nm for emission. […]

Another test deals with SK-N-MC cells. Put plainly: Inhibition of camptothecin-induced apoptosis by flow cytometry (propidium iodide, sub-G1). The following applies: camptothecin 50 μM, 6 h, Z-VAD-fmk 50 μM. It counts as cell-based, human. The procedure: To that end, the inhibition caused by the NST0005 compound of apoptosis caused by the treatment with camptothecin (Campt) was analyzed. The SK-N-MC cells, not exceeding 15 passages, were seeded on 6-well plates treated for adherent cells with a cell concentration of 8×10^5 cells/well; 2 wells of the plate were seeded for each condition of the assay.
After 24 h of cell incubation at 37° C. and 5% CO2 the cell treatments were performed with 2 ml of total volume for the following conditions: (i), control (culture medium); (ii), camptothecin [50 μM]; (iii) camptothecin [50 μM] and Z-VAD-fmk [50 μM] (Alexis), as positive control of inhibition; and (iv), 50 μM camptothecin with NST0005 at different concentrations [4, 10, 40 and 100 μg/ml].
The cells were incubated (at 37° C. and 5% CO2) with these treatments for 6 h, after which time they were pooled together with their culture medium and centrifuged at 300×g for 5 minutes. The medium was removed, a washing was performed with phosphate buffered saline (PBS) and they were fixed for 2 minutes with 500 μl of 70% ethanol at −20° C. […] After this time, they were analyzed by flow cytometry, comparing the fluorescence of the propidium iodine against the amount of DNA. The percentage of apoptosis was measured on the sub-G1 region of each of the conditions. […]
On the technique in general: Flow cytometry measures light scatter and fluorescence of single cells or particles in a stream.

Test [2] concerns caspase 3/7 activation in SK-N-MC cells. Put plainly: Inhibition of camptothecin-induced caspase 3/7 activation (Apo-ONE kit). It counts as cell-based, human. The following applies: camptothecin 50 μM, 6 h, Z-VAD-fmk 50 μM. The procedure:
To that end, the inhibition caused by (1S,3R,7S,8S,8aR)-1,2,3,7,8,8a-hexahydro-3,7-dimethyl-8-[2-[(2R,4R)-tetrahydro-4-hydroxy-6-oxo-2H-pyran-2-yl]ethyl-1-naphthalenyl 2,2-dimethylpropanoate (NST0005) of apoptosis caused by the treatment with camptothecin (Campt) on the SK-N-MC cells in culture was analyzed following the working conditions specified in section 3.1. Apoptosis can be quantified by measuring effector caspase activation. Caspases (proteins belonging to the cysteine-protease group) mediate the cleavage of a series of proteins triggering the signaling cascade which leads cells to apoptosis. […] The active cellular caspases 3 or 7 cause the cleavage of the substrate, emitting fluorescence which is read by means of a fluorometer.
The effect of the pretreatment of the NST0005 compound at 40 and 100 μg/ml on caspase 3/7 activation caused by 50 μM of camptothecin (Campt) in the SK-N-MC cells was thus analyzed. […]
The cells were incubated (at 37° C. and 5% CO2) with these treatments for 6 h, after which time the lysis buffer and the substrate rhodamine 110 were added at the concentrations specified by the manufacturer; they were incubated at room temperature for 30 minutes and the cells were then frozen at −20° C. overnight. They were thawed the next day and the reading of the plate was taken in a fluorometer at 499 nm for excitation and 521 nm for emission.

`O=C1O[C@H]([C@@H](O)CO)C(O)=C1O` [AA, ascorbic acid, reference compound] gave an inhibition at 100 µM in test [1] of 80%. With `COC(=O)C[C@H](NC(=O)[C@H](C)NC(=O)[C@@H](NC(=O)OCc1ccccc1)C(C)C)C(=O)CF` [Z-VAD-fmk, reference compound] (Cbz-Val-Ala-Asp(OMe)-CH2F), the “inhibition of apoptosis caused by camptothecin (flow cytometry)” value in the test with SK-N-MC cells was 30%. Further, in test [2], the “inhibition of caspase 3/7 activation” value is given as “completely inhibited”.

In general, inhibition refers to the share of the control response that was lost under treatment.

The values are drawn from US20110319484A1, “NEUROPROTECTIVE COMPOUNDS” (Parque Tecnologico de Ciencias de la Salud, priority 2009, published 2011).
